Measured values from PubChem BioAssay (NCI).
Several values for one entry are separate records, joined by “and”; a condition that tells them apart may be missing. Identical values can stand only once.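 Method: 48-hour compound exposure of cells in 96-well plates, five concentrations, linear interpolation of endpoints. GI50 marks 50% less growth. The concentration for full growth arrest is given as TGI.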

Tests used:
Assay in all cases: inhibition of tumour cell growth, NCI panel, 48 h
MDA-N = test system: MDA-N
DMS 273 small cell lung = test system: DMS 273 small cell lung
RXF-631 renal = test system: RXF-631 renal

C=C1C(=O)O[C@H]2C[C@@]3(C)[C@H](O)CCC(=C)[C@@H]3[C@@H](OC(C)=O)[C@H]12 was tested, and the TGI (MDA-N) was 20.6 µM.
Work on C=C1C(=O)OC2/C=C(\C=O)CC/C=C(\C)C(O)C[C@@H]12 (some centres not stated) yielded a TGI (DMS 273 small cell lung) of 15.7 µM.
In the case of COc1ccc2c(c1)[n+]([O-])c(/C(C)=N/NC(=O)CC#N)c[n+]2[O-], the TGI (DMS 273 small cell lung) was over 100 µM and the TGI (RXF-631 renal) was over 100 µM.
Work on COC(=O)C1=C(CS(=O)c2ccccc2[N+](=O)[O-])ON(C)C1c1ccccc1 (configuration not stated) yielded a TGI (DMS 273 small cell lung) of over 100 µM.
CC(C)Oc1cc(O)c2c(c1)OCC=C2CCC(=O)O showed a TGI (MDA-N) of 54.7 µM.
In the case of Cc1nc(C(N)=S)sc1C(=O)C/C(=N/N)C(=O)Nc1cccc(Cl)c1C, the TGI (MDA-N) was over 100 µM.
Cc1cc2c(=O)c3ccccc3[nH]c2c(C(=O)O)c1C showed a TGI (DMS 273 small cell lung) of over 100 µM.
In the case of O=C1CCC(O)=C1O, the TGI (DMS 273 small cell lung) was over 100 µM and the TGI (RXF-631 renal) was over 100 µM.
With Cc1cc(=O)oc2cc(O)c(CN(C)CC(=O)O)cc12 the TGI (MDA-N) was over 100 µM.
Compound S=c1nc(-c2cccnc2)[nH][nH]1 has a TGI (DMS 273 small cell lung) of over 100 µM.
For CC(=O)O[C@@H]1C2C(=O)OC(=O)C2C2CCC[C@]23O[C@H]13 (some centres not stated), the TGI (DMS 273 small cell lung) was over 100 µM.
COc1ccc(/C=C2\C(=O)N(C(=O)Cc3ccccc3)N=C2C)cc1OC gave a TGI (DMS 273 small cell lung) of over 100 µM.
Compound O=C(OC[C@H]1O[C@@H](OC(=O)c2cc(O)c(O)c(O)c2)[C@H](OC(=O)c2cc(O)c(O)c(O)c2)[C@@H](OC(=O)c2cc(O)c(O)c(O)c2)[C@@H]1OC(=O)c1cc(O)c(O)c(O)c1)c1cc(O)c(O)c(O)c1 has a TGI (DMS 273 small cell lung) of 7.07 µM.
CCN(CC)c1ccc2c(c1)Nc1cc(=C(C#N)C#N)c3ccccc3c1=N2 gave a TGI (DMS 273 small cell lung) of over 100 µM and a TGI (RXF-631 renal) of over 100 µM.
In the case of C=C(C=O)CCCC(C)[C@@H]1CCC23CC12CCC1[C@@]2(C)CCC(OC(C)=O)C(C)(C)C2CC(OC2OC(COC(C)=O)C(O)C(O)C2O)[C@]13C (some centres not stated), the TGI (DMS 273 small cell lung) was 13.3 µM.
In the case of C=C=C(C(=O)OC)S(=O)c1ccc([N+](=O)[O-])cc1[N+](=O)[O-] (configuration not stated), the TGI (DMS 273 small cell lung) was 64.1 µM and the TGI (RXF-631 renal) was over 69.7 µM.
In the case of Nc1ccc(S(=O)(=O)NCc2nccs2)cc1, the TGI (MDA-N) was 54.1 µM.
O=Cc1ccc(-c2cccs2)s1 gave a TGI (DMS 273 small cell lung) of over 100 µM, a TGI (MDA-N) of over 100 µM and a TGI (RXF-631 renal) of 12.9 µM.
O=c1[nH]c(=O)n(C2OC3COC2C3O)cc1F (configuration not stated) showed a TGI (DMS 273 small cell lung) of over 100 µM and a TGI (RXF-631 renal) of over 100 µM.
C[N+]1(C)C/C(=C\c2ccncc2)C(=O)/C(=C/c2ccncc2)C1 showed a TGI (DMS 273 small cell lung) of over 100 µM.
In the case of Nc1nc(CCC(=O)Nc2cccc(C(F)(F)F)c2)cc(-c2ccc3ccccc3c2)n1, the TGI (DMS 273 small cell lung) was over 100 µM.
In the case of CCOC(=O)c1cc(/C=C/C(C)=C/C(=O)OC)n(C)c1C, the TGI (DMS 273 small cell lung) was over 100 µM and the TGI (RXF-631 renal) was over 100 µM.
Compound O=[N+]([O-])c1ccc2c(c1)[O][Sn][O]2 has a GI50 (DMS 273 small cell lung) of 18.8 µg/mL and a TGI (DMS 273 small cell lung) of over 150 µg/mL.
For O=C([CH-]C(=O)C(F)(F)F)c1ccccc1.O=C([CH-]C(=O)C(F)(F)F)c1ccccc1.O=C([CH-]C(=O)C(F)(F)F)c1ccccc1.O=C([CH-]C(=O)C(F)(F)F)c1ccccc1.[Eu+3].c1ccncc1, the GI50 (DMS 273 small cell lung) was 8.87 µM and the TGI (DMS 273 small cell lung) was over 100 µM.
Work on COC(=O)c1nc(N)[nH]c(=O)c1CCCCCc1c(C(=O)OC)nc(N)[nH]c1=O yielded a TGI (DMS 273 small cell lung) of over 50 µM and a TGI (RXF-631 renal) of over 50 µM.
CN[C@@H]1C[C@H]2O[C@@](C)([C@@H]1OC)n1c3ccccc3c3c4c(c5c6ccccc6n2c5c31)C(=O)N[C@@H]4O gave a TGI (DMS 273 small cell lung) of 0.637 µM and a TGI (MDA-N) of 1.6 µM.
CCOC(=O)CC1NC(=O)CS1 (configuration not stated) showed a TGI (DMS 273 small cell lung) of over 100 µM and a TGI (RXF-631 renal) of over 100 µM.
Compound CC1(C)C2CCC3(C2)CS(=O)(=O)N2OC231 (configuration not stated) has a TGI (DMS 273 small cell lung) of 58.5 µM.
Compound Cc1ccc(S(=O)(=O)N=Nc2c(O)[nH]c3c(Cl)cc(Cl)cc23)cc1 has a TGI (MDA-N) of over 100 µM.
C[C-](O)O.O/C(=C\[C-](O)c1ccccc1)c1ccccc1.O/C(=C\[C-](O)c1ccccc1)c1ccccc1.[Nd+3] (configuration not stated) was tested, and the GI50 (DMS 273 small cell lung) was 3.25 µM and the TGI (DMS 273 small cell lung) was 16.1 µM.
In the case of CN=C1SC(=Nc2ccc(N(C)C)cc2)N1C, the TGI (DMS 273 small cell lung) was over 100 µM.
COC(=O)c1c(-c2ccccc2)sc(-c2cccc3ccccc23)c1C(=O)OC showed a TGI (DMS 273 small cell lung) of over 100 µM.
With CNC(=S)N/N=C/c1ccc([N+](=O)[O-])s1 the TGI (MDA-N) was over 10 µM.
For CCOc1ccccc1NC(=O)CCc1nc(=S)[nH][nH]1, the TGI (RXF-631 renal) was over 100 µM.
Cc1ccc2c(c1)C(c1cccc3ccccc13)OC2=O (configuration not stated) was tested, and the TGI (DMS 273 small cell lung) was over 100 µM and the TGI (RXF-631 renal) was over 100 µM.
With CC[C@@]1(O)C(=O)OCc2c1cc1n(c2=O)Cc2cc3cc(N)ccc3nc2-1 the GI50 (DMS 273 small cell lung) was 0.00263 µM, the TGI (DMS 273 small cell lung) was 0.129 µM and 0.179 µM and the GI50 (MDA-N) was 0.227 µM. For the same compound, the TGI (MDA-N) was 1.4 µM and 0.27 µM.
O=C1C2Cc3ccccc3CN2C(=O)N1CCN1CCCC1 (configuration not stated) was tested, and the TGI (DMS 273 small cell lung) was over 100 µM and the TGI (RXF-631 renal) was over 100 µM.
For Cc1c2cc[n+](C)cc2c(C)c2c1[nH]c1ccc(O)c(OCC(F)(F)F)c12, the TGI (DMS 273 small cell lung) was 8.79 µM and the TGI (RXF-631 renal) was 15.4 µM.
For O=[N+]([O-])c1ccc2c(c1)[O][Sn]([I])([I])[O]2, the GI50 (DMS 273 small cell lung) was 71.1 µM and the TGI (DMS 273 small cell lung) was over 100 µM.
For Cc1c(Cl)cccc1NC(=O)CC1C(=O)Nc2ccccc2S1(=O)=O (configuration not stated), the TGI (DMS 273 small cell lung) was 21.4 µM.
In the case of CCN(CC)CCNc1n[n+]([O-])c2ccccc2[n+]1[O-], the TGI (MDA-N) was > 100 µM and 31.8 µM.
Work on O=C1c2ccccc2-n2c1nc1ccccc1c2=O yielded a TGI (MDA-N) of 32.4 µM.
With Fc1cccc(Cl)c1/C=N\N=C1c2ccccc2-c2ccccc21 the TGI (MDA-N) was over 100 µM.
With O=C(O)CSc1ncccc1[N+](=O)[O-] the TGI (MDA-N) was over 100 µM.
In the case of CCOC(=O)[C@H]1Nc2ccc(OC)cc2C2c3ccccc3CC21 (some centres not stated), the TGI (DMS 273 small cell lung) was over 100 µM and the TGI (RXF-631 renal) was over 100 µM.
Work on CCN1CSC(=S)N(CC)C1 yielded a TGI (MDA-N) of over 100 µM.
For CCOC(=O)COS(=O)(=O)C(F)(F)F, the TGI (DMS 273 small cell lung) was 36.7 µM and the TGI (RXF-631 renal) was over 100 µM.
For C1=CC=C2NCCOCCNC3=CC=CC=CC3=NCCOCCN=C2C=C1, the TGI (DMS 273 small cell lung) was over 100 µM and the TGI (RXF-631 renal) was over 100 µM.
